Experimental data: patent publication US8399414B2, “Analgesics” (NRL Pharma, Inc., priority 2002, dated 2013)

Legend:
male Wistar rats [1] = experiment: formalin test, comparison with diclofenac (Example 3); assay type: in vivo, rat; settings: i.p. 30 minutes before formalin
Protocol: Male Wistar rats 6 weeks of age were used. The rats in one group were given bovine lactoferrin and those in another group were given a control drug, diclofenac, by intraperitoneal administration 30 minutes before injecting formalin into their foot pads. Their responses to pain are shown in FIG. 5: the phase 1 pain (left) and the phase 2 pain (right).
Lactoferrin and diclofenac were administered intraperitoneally 30 minutes before formalin injection both in the control group (n=4) and the diclofenac group (n=5). The pain inhibiting effect of diclofenac disappeared about 50 minutes after formalin injection, whereas the pain inhibiting effect of lactoferrin lasted long and even 60 minutes after formalin injection.

[2] = system: volunteers affected by frozen shoulder; experiment: frozen shoulder volunteers, oral enteric coated tablets (Example 11); assay type: in vivo, human
Protocol: Three male volunteers […], each of who was affected frozen shoulder and could not raise either one of their hands above the shoulder, took orally the enteric coated tablets of lactoferrin from bovine milk (Production Example 4). […] They took lactoferrin in a daily dose of 450 mg in 3 uniformly divided portions after each meal. […] disappeared and was cured in one volunteer on day 7 after the initial administration and in the other volunteers on day 12 and on day 23 after the same, respectively.

[3] = system: patients with osteoarthritis; experiment: osteoarthritis patients, oral enteric coated tablets (Example 9); assay type: in vivo, human; settings: diclofenac in the former, ibuprofen in the latter
Protocol: Lactoferrin extracted from bovine milk was formed into enteric coated tablets (Production Example 4) and given orally to a person whose right knee and right elbow were affected by osteoarthritis associated with the injuries caused by their falling off a bicycle and a person whose knee joints were affected by osteoarthritis associated with obesity. Lactoferrin was administered at a dose of 150 mg (450 mg per day) 3 times a day after each meal.

male Wistar rats [4] = experiment: formalin test, intrathecal administration, comparison with morphine (Example 12); assay type: in vivo; settings: 30 minutes before formalin, bLF 0.1 to 100 μg/rat, rhLF 100 μg/rat, morphine 10 μg/rat, FIGS. 15
Protocol: Groups consisting of male Wistar rats 6 weeks of age (n=6 to 8) were intrathecally administered 0.1 to 100 μg/rat of bovine lactoferrin (bLF), 100 μg/rat of recombinant human lactoferrin (rhLF) or 10 μg/rat of morphine (Mor) 30 minutes before formalin was injected into their foot pads. The results are shown in FIGS. 15: the number of the foot-lifting times in the phase 1 pain (left graph) and the number of the foot-lifting times in the phase 2 pain (right graph).

Structure (SMILES)	inhibition of phase 1 pain (male Wistar rats [1]; FIG. 5)	inhibition of phase 2 pain (male Wistar rats [1]; FIG. 5)	duration of pain inhibiting effect after formalin injection (male Wistar rats [1]; FIGS. 7 and 8)	response to earlier treatment [2]	response to earlier treatment [3]	phase 1 pain (number of foot-lifting times) (male Wistar rats [4])	phase 2 pain (number of foot-lifting times) (male Wistar rats [4])
O=C(O)Cc1ccccc1Nc1c(Cl)cccc1Cl [diclofenac, reference compound]	did not	inhibited the phase 2 pain, but the degree of inhibition was low compared with that by lactoferrin	about 50 minutes	failed to respond	failed to respond		
CN1CC[C@]23c4c5ccc(O)c4O[C@H]2[C@@H](O)C=C[C@H]3[C@H]1C5 [morphine, reference compound]						inhibits	inhibits
CC(C)Cc1ccc(C(C)C(=O)O)cc1 (centres unmarked) [ibuprofen]					failed to respond		
